Assay results published in ChEMBL document CHEMBL1142800, “Estrogen receptor ligands. Part 13: Dihydrobenzoxathiin SERAMs with an optimized antagonist side chain” (Bioorg Med Chem Lett, 2005).

Molecular target: Estrogen receptor beta (Homo sapiens, UniProt Q92731)
Assay: Inhibition of human estrogen receptor 2 using tritiated estradiol incubated for 3 hr

Chain of Estrogen receptor beta (Q92731 whole entry): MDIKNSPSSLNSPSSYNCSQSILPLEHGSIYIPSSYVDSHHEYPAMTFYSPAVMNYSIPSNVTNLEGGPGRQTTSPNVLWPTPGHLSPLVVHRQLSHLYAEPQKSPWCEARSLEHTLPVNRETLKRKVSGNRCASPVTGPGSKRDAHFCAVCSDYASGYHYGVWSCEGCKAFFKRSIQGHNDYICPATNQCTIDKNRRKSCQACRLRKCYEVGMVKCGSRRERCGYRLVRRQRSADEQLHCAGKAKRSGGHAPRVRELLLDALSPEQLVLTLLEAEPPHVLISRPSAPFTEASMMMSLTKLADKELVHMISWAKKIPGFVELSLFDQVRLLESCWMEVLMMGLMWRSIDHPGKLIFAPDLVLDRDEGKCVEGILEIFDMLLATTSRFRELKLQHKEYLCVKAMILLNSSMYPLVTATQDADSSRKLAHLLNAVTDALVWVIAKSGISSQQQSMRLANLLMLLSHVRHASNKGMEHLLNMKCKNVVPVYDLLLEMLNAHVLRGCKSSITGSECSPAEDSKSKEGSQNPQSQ

IC50 [nM] | SMILES
9.1 | C[C@@H]1CCN([C@@H](C)COc2ccc([C@@H]3Oc4ccc(O)c(F)c4S[C@@H]3c3cccc(O)c3)cc2)C1
69 | C[C@@H]1CCN([C@@H](C)COc2ccc([C@@H]3Oc4ccc(O)cc4S[C@@H]3c3cccc(O)c3)cc2)C1
5.3 | C[C@@H]1CCN([C@@H](C)COc2ccc([C@@H]3Oc4ccc(O)c(F)c4S[C@@H]3c3ccc(O)cc3)cc2)C1
